Data set [1] relates to OCC1-SEAP-12 ovarian cancer cells. The format is in vivo. As to the method:
Athymic nude mice were obtained and inoculated intraperitoneally with OCC1-SEAP-12 cells as described above in Examples I and II. Animals received injections of either vehicle control (PBS containing 25% DMSO), or carboplatin (60 mg/kg) alone, or in combination with LY294002 (50 mg/kg) every other day for 6 days. Blood samples were collected into capillary tubes from saphenous vein lancings at regular intervals during and following treatments. Capillary tubes were centrifuged, and the plasma samples were frozen (−20° C.), until the time of SEAP assay. The Washington State University Animal Care and Use Committee approved all procedures.
Blood plasma and cell culture medium samples were assayed for SEAP activity using the Great EscAPe SEAP fluorescence detection kit (Clontech Laboratories, Palo Alto, Calif.) as described above in Examples I and II. Blood plasma samples were diluted 1:100 prior to the assay to bring values within the linear range of the standard curve. The intraassay and interassay coefficients of variation were 2.5% and 18.8%, respectively.

In data set [2] the test system is Akt. Put plainly: Western blot for Akt phosphorylation (Example III). The data set is classed as cell-based, human. The following applies: 6 hr and 24 hr; LY294002 10 (FIG. 18 legend: mM), carboplatin 50. The method, then: The OCC1-SEAP-12 cells were grown to 80% confluence. […] […] Total cell lysates were subjected to SDS polyacrylamide gel electrophoresis 9 page) and transferred to PVDF membranes (Millipore, Bedford, Mass.). Membranes were immunoblotted with antibodies to both the phosphorylated and non-phosphorylated forms of […] (Cell Signaling Technology, Beverly, Mass.), or alternatively, with antibodies to cleaved and full length caspase-3 (Cell Signaling Technology, Beverly, Mass.).

For data set [3], the system named is OCC1-SEAP-12 ovarian cancer cells. The following applies: LY294002 alone (Westfall and Skinner 2005); cited from earlier work.
Data set [4] concerns OCC1-SEAP-12 cells. The data set is described as follows: Growth assay, [3H] thymidine incorporation (Example III). The data set is classed as cell-based, human. The following applies: LY294002, 18h treatment. As to the method: Cell proliferation was analyzed by determining the amount of [^3H] thymidine incorporation Into newly synthesized DNA. The OCC1-SEAP-12 cells were plated in 24 well plates in Ham's F-12 medium plus 10% BCS and allowed to reach 50 to 70% confluence. Following a 48 hr serum starvation, the culture medium was changed to Dulbecco's Modified Eagle Medium (DMEM) plus 0.1% BSA and 0.1% BCS containing either vehicle control or carboplatin (0-100 μg/ml) alone, or in combination with LY294002 (0-20 μM). Treatments were removed after 18h and cells were incubated for 4 hr in medium containing 5 μCi/ml of [^3H] thymidine. Medium was removed and cells were disrupted by sonication in phosphate buffered saline (PBS). An aliquot of the sonicated solution of PBS was loaded onto a DEAE filtration plate (Millipore, Bedford, Mass.), and individual filters with bound DNA were collected for scintillation counting. Data was normalized to total DNA per well and was determined by a SYBR green fluorescent assay (Nilsson E E, Westfall S D, McDonald C, Ligon T, Sadler-Riggleman I, Skinner M K. An in vivo mouse reporter gene (human secreted alkaline phosphatase) model to monitor ovarian tumor growth and response to therapeutics. Cancer Chemother Pharmacol 2002; 49(2):93-100).
(In general: Incorporation of labelled thymidine or its analogues reports DNA synthesis.)

Data set [5] relates to caspase 3. The data set is described as follows: Western blot for active caspase 3 (Example III). The following applies: LY294002 10 μM, carboplatin 50 μg/ml. The format is cell-based, human. As to the method:
The OCC1-SEAP-12 cells were grown to 80% confluence. Cultures were incubated in DMEM plus 0.1% bovine serum albumin (BSA) and 0.1% BCS to which either vehicle control, carboplatin (0-50 μg/ml), LY294002 (0-20 μM) or combinations of these treatments. Following 24, 48 or 72 hr cells were lysed with sample buffer (62.5 mM Tris-HCl, pH 6.8, 2% SDS, 5% glycerol, […], 0.5% β-mercaptoethanol). Total cell lysates were subjected to SDS polyacrylamide gel electrophoresis 9 page) and transferred to PVDF membranes (Millipore, Bedford, Mass.). Membranes were immunoblotted with antibodies to both the phosphorylated and non-phosphorylated forms of […] (Cell Signaling Technology, Beverly, Mass.), or alternatively, with antibodies to cleaved and full length caspase-3 (Cell Signaling Technology, Beverly, Mass.).
(Immunoblotting shows a protein as a band on a membrane.)

For data set [6], the system named is OCC1-SEAP-12 ovarian cancer cells. Put plainly: Cell survival by DNA content of culture wells (Example III). The format is cell-based, human. The method, then:
Cell survival was assessed as cell number remaining in culture following exposure to treatments. The DNA content of individual culture wells was used as an indication of cell number. Cells plated in 24 well culture plates were allowed to approach confluence (80%) in Ham's F-12 medium plus 10% BCS. […] Media aliquots were taken when appropriate for SEAP analysis. The DNA was measured fluorometrically as previously described (Nilsson […], Ligon […]. An in vivo mouse reporter gene (human secreted alkaline phosphatase) model to monitor ovarian tumor growth and response to therapeutics. Cancer Chemother Pharmacol 2002; 49(2):93-100). Briefly, the fluorescence of aliquots of sonicated cell suspensions into which SYBR Green I fluorescent dye (Molecular Probes, Eugene Oreg.) had been incorporated, was measured.

Data set [7] relates to solid tumor types. The following applies: TPL 0.15 mg/kg; cited from earlier work.
The test system of data set [8] is breast cancer xenografts. The following applies: TPL 0.5 mg/kg; cited from earlier work.
Data set [9] has as its system caspase-3. The data set is described as follows: Western blot for active caspase-3 (Example II). The following applies: 24 h; TPL 100 ng/ml, carboplatin 50. The format is cell-based, human.
In data set [10] the test system is OCC1-SEAP cell cultures. The data set is described as follows: DNA fragmentation (laddering) on agarose gel (Example II). The data set is classed as cell-based, human. The following applies: 48 hr; TPL 100 ng/ml, carboplatin 50 μg/ml. As to the method: Following 48 h to 72 h treatment incubations, cells were suspended into culture medium and pelleted in tubes. DNA was isolated from collected cells using a Puregene™ DNA isolation kit (Gentra Systems, Minneapolis, Minn.). The quantity and purity of nucleic acid preparations were estimated by measuring the absorbance of each sample (A260/A280). DNA preparations (10 μg/well) were loaded onto 1.2% agarose gels and visualized with ethidium bromide stain.

For data set [11] the following is noted: TPL 0.15 mg/kg, nude mice; cited from earlier work.
The test system of data set [12] is OCC1-SEAP ovarian cancer cells. Put plainly: Cell survival by DNA content of culture wells (Example II). The data set is classed as cell-based, human. The following applies: 48 hours; triptolide 100 ng/ml, carboplatin 50 (FIG. 8 legend: mg/ml). The method, then: Cell survival was assessed as the number of cells remaining in culture, following exposure to treatments. The DNA content of individual culture wells was used as an indication of cell number. Cells plated in 24 well culture plates were allowed to approach confluence (80%) in Ham's F-12 medium plus 10% BCS. Cultures were then incubated in DMEM, plus 0.1% BSA and 0.1% BCS, in the presence of vehicle control, carboplatin (0-100 μg/ml), Triptolide (100 ng/ml) or a combination of these for 24 to 96 hrs. Media aliquots were taken when appropriate for SEAP analysis. The DNA was measured fluorometrically, as described above, in Example I. Briefly, the fluorescence of an aliquot of sonicated cell suspension, into which SYBR Green I fluorescent dye (Molecular Probes, Eugene, Oreg.), had been incorporated was measured.

Data set [13] has as its system OCC1-SEAP tumor. Put plainly: Nude mouse tumor model, intraperitoneal OCC1-SEAP cells, plasma SEAP (Example II). The format is in vivo. From the text:
Athymic nude mice (NCR Nu/Nu) were either purchased from Taconic (Germantown, N.Y.) or bred in-house at Washington State University, Pullman, Wash. The OCC1-SEAP cells were collected in Hank's balanced salt solution and counted prior to injection. Treatments were initiated 7 to 10 days following an intraperitoneal inoculation of mice with 1×10^7 OCC1-SEAP cells, as described above, in Example I.
Stock solutions of carboplatin (paraplatin; Bristol-Myers Squibb, Princeton, N.J.) and TPL (Calbiochem, CA), were prepared in sterile filtered PBS and DMSO, respectively. Animals received intraperitoneal injections of either vehicle controlled (PBS containing 4% DMSO), or carboplatin (60 mg/kg), alone, or in combination with TPL (0-1.0 mg/kg), every other day for 5 days. Alternatively, TPL (0.15 mg/kg) was injected every day for 10 days. For these experiments, carboplatin was administered under the same schedule of every other day for 5 days. Some mice were also treated with 40 mg/kg of LY294002 every other day for 5 days, with an intraperitoneal injection in the presence of TPL and carboplatin. Blood samples were collected into capillary tubes from saphenous vein lancings at regular intervals during and following treatments. The capillary tubes were centrifuged and the plasma samples were frozen at −20° C., until the time of SEAP assay. The Washington State University Animal Care and Use Committee approved all procedures.
Blood plasma and cell culture medium samples were assayed for SEAP activity using the Great EscAPe SEAP fluorescence detection kit (Clontech Laboratories, Palo Alto, Calif.), as described above in Example I. Blood plasma samples were diluted 1:100, prior to the assay to bring values within the linear range of the standard curve. The intraassay and interassay coefficients of variation were 2.5% and 18.8%, respectively. In the case of the experiments in which mice were treated with a combination of TPL, LY294002 and carboplatin, there was some variation in the extent of tumor growth in the control mice. In order to better compare response to treatment across experiments, the SEAP assay data between experiments were normalized by dividing each data point by the overall mean of all SEAP measurements from that experiment and up, through day 18. The normalized data then reflect the relative tumor burden of each mouse, compared to others in the experimental group, and can be combined across experiments.

The subject of data set [14] is OCC1-SEAP intraperitoneal tumors. Put plainly: Nude mouse intraperitoneal OCC1-SEAP tumor model, plasma SEAP (Example I). The data set is classed as in vivo, athymic nude mice. The method, then:
Athymic nude mice (Nu/Nu; Charles River Laboratories, Wilmington, Mass.) weighing about 25 g were used for in vivo studies.
Three mice were injected intraperitoneally with 1×10^7 OCC1-SEAP-12 cells. The experimental treatments began after 1 week. […] Alternatively, four mice with well-developed tumors (2-4 weeks after injection) were treated with a high dose of carboplatin (60 mg/kg) three times over a period of 4 days. After death all visible intraperitoneal tumors were dissected out and weighed.
Blood samples were collected from saphenous vein lancings three times per week into heparinized capillary tubes. The capillary tubes were centrifuged and the plasma samples were frozen at −20° C. until the time of SEAP assay. Blood samples were taken for SEAP assay from the mice within 24 hours of death 2-3 weeks after intraperitoneal injection of OCC1-SEAP cells.
Blood plasma and cell culture medium samples were assayed for SEAP activity using the Great EscAPe SEAP fluorescence detection kit (Clontech Laboratories, Palo Alto, Calif.). SEAP is secreted at a constant rate by transfected tumor cells and distributed throughout the body or into the culture medium. SEAP is heat stable, so any endogenous alkaline phosphatase activity in blood plasma is destroyed by heat treatment of the samples (65° C. for 30 minutes) during the assay. The SEAP enzyme in each sample acts on the substrate 4-methylumbelliferyl phosphate during a 1 hour incubation at room temperature to produce a fluorescent product with excitation and emission peaks at 360 and 449 nm, respectively. A fluorimeter is then used to measure SEAP activity. The intra-assay and inter-assay coefficients of variation were 2.5% and 18.8%, respectively. Blood plasma samples were diluted 1:100 prior to the assay to bring values within the linear range of the standard curve.

Molecules are shown by their SMILES.

For the compound `O=c1cc(N2CCOCC2)oc2c(-c3ccccc3)cccc12` [LY294002, 2-(4-morpholinyl)-8-phenyl-4H-1-benzopyran-4-one], the “abdominal swelling (FIG. 24)” value in data set [1] (physical appearance of mice after treatment) is reported as “displayed abdominal swelling”. Also, the “tumor size vs vehicle control (FIG. 23)” value in [1] (single agents: LY294002 50 mg/kg, carboplatin 60 mg/kg) was “no significant difference”. The Akt phosphorylation entry in data set [2] is “blocked basal levels”. In addition, the “effect on ovarian cancer tumor progression” value in [3] is “negligible effects”. Also, the “block of basal DNA synthesis” value in [4] was found to be 50%. For the same compound, the “time at which active 17 kDa caspase 3 appears” value in data set [5] was 72 h. The “reduction of cell number” value in data set [6] (5 μM LY294002, 48 hr incubation) was determined as 22%; in [6] (10 μM LY294002, 48 hr incubation), 44%.
Turning to `CC(C)[C@]12O[C@H]1[C@@H]1O[C@]13[C@]1(O[C@H]1C[C@H]1C4=C(CC[C@@]13C)C(=O)OC4)[C@@H]2O` [TPL, Triptolide], in [7], the “inhibition of growth and metastasis of solid tumors” value is on record as “potent”. For the same compound, the toxicity of dose result in [8] is given as “lethal”. For the same compound, in [9], the “induction of active caspase-3” value is “robust induction”. The DNA laddering result in [10] is reported as “evident”. Moreover, the “dose as share of the maximum tolerated dose” value in data set [11] is reported as 60%. In addition, in data set [12], the “decrease in cell survival (μg DNA/ml) compared to control cultures” value is “approximately 40%”. The toxicity entry in data set [13] (TPL 0.5 mg/kg ip every other day over 5 days) was “no apparent toxicity”. Also, the “mice expired within 24 hours” value in [13] (TPL 1.0 mg/kg intraperitoneal) is recorded as 2 of 3. In addition, the “SEAP values vs vehicle control” value in [13] (TPL 0.125, 0.25 or 0.5 mg/kg ip every other day over 5 days) was “not significant differences”. Further, the “tumor burden vs vehicle control (FIG. 11)” value in [13] (high dose, short duration: TPL 0.5 mg/kg, carboplatin 60 mg/kg every other day for 5 days) was “no significant difference”. The “tumor burden as measured by SEAP levels vs vehicle control (FIG. 12)” value in data set [13] (low dose, long duration: TPL 0.15 mg/kg every day for 10 days, carboplatin 60 mg/kg every other day for 5 days) is listed as “no significant difference”.
Regarding `N.N.[Cl][Pt][Cl]` [cisplatin], the “tumor growth by plasma SEAP compared to vehicle controls” value in data set [14] (3 or 10 mg/kg cisplatin every 48-72 h over a 2-week period, intraperitoneal) is given as “decreased tumor growth”. Further, the “difference in tumor growth between 3 and 10 mg/kg” value in data set [14] (cisplatin 3 vs 10 mg/kg) is recorded as “No difference”.

These data come from patent US20110045102A1, “Cancer chemotherapy compositions comprising PI3K pathway modulators and triptolide” (priority 2005, published 2011).
